# In BindingDB's records for doi:10.1021/jm500588w (Sanofi R & D, 2014):
# Assay: Antagonist activity at P2Y12 receptor in human platelet rich plasma assessed as inhibition of ADP-induced aggregation
row,SMILES,IC50 [nM]
1,CCCC(=O)c1cnn(-c2ccc(NC(=O)c3cn(CC(=O)N4CCN(Cc5cc(C)on5)CC4)c4ccc(Cl)cc34)cc2)c1C,300
2,CCCC(=O)c1cnn(-c2ccc(NC(=O)c3cn(CC(=O)N4CCN(C)CC4)c4cc(C)c(C)cc34)cc2)c1C,500
3,CCCC(=O)c1cnn(-c2ccc(NC(=O)c3cn(CCCC(=O)O)c4ccc(C)cc34)cc2)c1C,20000
4,CCCC(=O)c1cnn(-c2ccc(NC(=O)c3cn(CC(=O)N4CCN(C)CC4)c4cc(C)c(Br)cc34)cc2)c1C,1100
5,CCCC(=O)c1cnn(-c2ccc(NC(=O)c3cn(CC(=O)N4CCN5CCN(C)C(=O)C5C4)c4ccc(Cl)cc34)cc2)c1C (configuration not stated),300
6,CCOC(=O)c1c(C)nn(-c2ccc(NC(=O)Nc3ccc(Cl)cc3)cc2)c1C,4500
7,CCCC(=O)c1cnn(-c2ccc(NC(=O)c3cn(CC(=O)N4CCN(CCOC)CC4)c4ccc(Cl)cc34)cc2)c1C,300
8,CCCC(=O)c1cnn(-c2ccc(NC(=O)c3cn(CC(=O)N4CCN(C)CC4)c4cc(F)c(Cl)cc34)cc2)c1C,500
9,CCCC(=O)c1cnn(-c2ccc(NC(=O)c3cn(CC(=O)OC)c4ccc(C)cc34)cc2)c1C,4100
10,CCCC(=O)c1cnn(-c2ccc(NC(=O)c3cn(CC(=O)N4CCN(CC(=O)N(C)C)CC4)c4ccc(Cl)cc34)cc2)c1C,400
11,CCCC(=O)c1cnn(-c2ccc(NC(=O)c3cn(CC(=O)N4CCN(C)CC4)c4cc(C)c(Cl)cc34)cc2)c1C,500
12,CCOC(=O)c1c(C)nn(-c2ccc(C(=O)NCc3ccccc3OC)cc2)c1C,16800
13,CCCC(=O)c1cnn(-c2ccc(NC(=O)c3cn(CC(=O)N4CCN(C)CC4)c4ccc(Cl)cc34)cc2)c1C,500
14,CCCC(=O)c1cnn(-c2ccc(NC(=O)c3cn(CC(=O)N4CCN(C)CC4)c4ccc(C(F)(F)F)cc34)cc2)c1C,700

# Results, then the molecule that gave them:
row,IC50 [nM],SMILES
1,4000,CCCC(=O)c1cnn(-c2ccc(NC(=O)c3cn(CCC(=O)O)c4ccc(C)cc34)cc2)c1C
2,400,CCCC(=O)c1cnn(-c2ccc(NC(=O)c3cn(CC(=O)N4CCN(C)CC4)c4ccc(OC)cc34)cc2)c1C
3,15000,CCCC(=O)c1cnn(-c2ccc(NC(=O)c3c(C)n(CC(=O)O)c4ccc(C)cc34)cc2)c1C
4,> 30000,CCCC(=O)c1cnn(-c2ccc(N(C)C(=O)c3cn(CC(=O)O)c4ccc(C)cc34)cc2)c1C
5,500,CCCC(=O)c1cnn(-c2ccc(NC(=O)c3cn(CC(=O)N4CCN(C)CC4)c4ccc(C)cc34)cc2)c1C
6,> 30000,CCCC(=O)c1cnn(-c2ccc(NC(=O)c3cn(CC(=O)O)c4ccc(C)c(C)c34)cc2)c1C
7,> 30000,CCCC(=O)c1cnn(-c2ccc(NC(=O)n3cc(CCCC(=O)O)c4ccc(C)cc43)cc2)c1C
8,400,CCCC(=O)c1cnn(-c2ccc(NC(=O)c3cn(CC(=O)O)c4cc(C)c(C)cc34)cc2)c1C
9,300,CCCC(=O)c1cnn(-c2ccc(NC(=O)c3cn(CC(=O)N4CCN(CCO)CC4)c4ccc(Cl)cc34)cc2)c1C
10,1800,CCCC(=O)c1cnn(-c2ccc(NC(=O)c3cn(CC(=O)O)c4ccc(C)cc34)cc2)c1C
11,13000,CCOC(=O)c1c(C)nn(-c2ccc(NC(=O)Nc3ccccc3OCCCC(=O)O)cc2)c1C
12,800,CCCC(=O)c1cnn(-c2ccc(NC(=O)c3cn(CC(=O)N(C)C)c4cc(C)c(C)cc34)cc2)c1C
13,> 30000,CCCC(=O)c1cnn(-c2ccc(NC(=O)Nc3cc(C)ccc3OCCCC(=O)O)cc2)c1C
